Patent US11479587B2, “Cationic intrinsically disordered antimicrobial peptides” (priority 2016, dated 2022)
In brackets after ≈: the same amount, converted by molar mass. Several values for one entry are separate records, joined by “and”; a condition that tells them apart may be missing. Equal entries are not always repeated. Non-standard residues stand in square brackets, D forms with d. Residues, ends and D or L forms follow the SMILES beside them. No end group written: not given here. *: point of attachment. Palmitoyl = CCCCCCCCCCCCCCCC(=O)*; Dap = NC[C@H](N)C(=O)O

Assays:
[1] = system: methicillin-resistant S. aureus strain (ATCC 43300); assay type: cell-based, Staphylococcus aureus; conditions: ATCC 43300, 18 h
Method: Furthermore, sensitivity of a methicillin-resistant S. aureus strain (ATCC 43300) was investigated for palmitoylated CIDAMPs in a microtiter plate screening model, with incubation in Mueller-Hinton medium at 37° C. for 18 h using resazurin as a marker for cell viability.
A sample of each culture was then diluted 40-fold in fresh broth and incubated at 37° C. for 1.5-3 h. […] All the plates were covered and incubated at 37° C. for 18 h.
(§1) Inhibition of bacterial growth was determined using resazurin as a marker for cell viability. Resazurin was added to each well, at 0.001% final concentration, and plates incubated at 37° C. for 2 h. Fluorescence intensity was measured, using F (top read), ex 560/10 nm, em 590/10 nm, using a Tecan M1000 Pro monochromator plate reader.

[2] = Cytotoxicity (resazurin) assay
Method: For the cytotoxicity (resazurin) assay, HEK293 cells were counted manually in a Neubauer haemocytometer and plated at a density of 4000 cells/well into each well of the 384-well plates containing the 25×(2 μl) concentrated compounds. The medium used was Dulbecco's modified eagle medium (DMEM) supplemented with 10% foetal bovine serum (FBS). Cells were incubated together with the compounds for 20 h at 37° C., 5% CO2. To measure cytotoxicity, 5 μl (equals 100 μM final) resazurin was added to each well after incubation, and incubated for further 3 h at 37° C. with 5% CO2.
After final incubation fluorescence intensity was measured as F ex 560/10 nm, em 590/10 nm (F560/590) using a Tecan M1000 Pro monochromator plate reader. […] The concentration dependent percentage cytotoxicity was fitted to a dose response function (using Pipeline Pilot) and CC50 values determined.

[3] = Hemolysis assay; assay type: cell-based
Method: (§2) For the hemolysis assays EDTA-blood was centrifuged at 800×g for 10 min, and the plasma and buffy coat were removed. The erythrocytes were washed three times and resuspended in 5% PBS, pH 7.4. The cells were then incubated with end-over-end rotation for 1 h at 37° C. in the presence of different concentrations of peptides (0, 3, 10, 30, 60 μm). 0.1% Triton X-100 (Sigma-Aldrich) served as positive control. The samples were then centrifuged at 800×g for 10 min.
(§3) The absorbance of hemoglobin release was measured at 540 nm and is expressed as % of Triton X-100-induced hemolysis. These values of triplicates were plotted with Graph Pad Prism 4 as a dose response curve and the CC50 was determined.

[4] = system: C. neoformans
[5] = system: erythrocytes; test: Hemolysis assay; assay type: cell-based
Method: as §2, §3

[6] = system: C. albicans ATCC 928; conditions: for MIC, C. albicans ATCC 90028: ATCC 928; for MIC: ATCC 928, 18 h, pH 7.4
[7] = system: A. baumannii ATCC 19606; assay type: cell-based, Acinetobacter baumannii; conditions: ATCC 19606, 2 h
Method: as §1

[8] = system: P. aeruginosa ATCC 10145; test: CFU-assay, P. aeruginosa-cidal activity; assay type: cell-based, Pseudomonas aeruginosa; conditions: pH 5.5, 0.25% glucose
[9] = system: S. aureus ATCC 6538; test: CFU-assay, S. aureus-cidal activity; assay type: cell-based, Staphylococcus aureus; conditions: pH 5.5, 0.25% glucose
Method: Thus, within the present invention, the antimicrobial activity is generally measured in nutrient deficient 10 mM sodium phosphate buffer pH 5.5, containing 0.25% glucose, using the CFU-assay according to Steinberg and Lehrer, 1997 (supra), unless otherwise indicated. The CFU-assay allows determination of the minimal bactericidal concentration (MBC, e.g., MBC90 and MBC100; i.e. the concentration of compound required to achieve a specified reduction in bacterial cell number (microbial death or killing)).
Various peptides corresponding to repeat domains of hornerin (HR 1-11: HRNR 2606-2628; HR 1-17: HRNR 2656-2684 and HR 1-18: HRNR 2656-2677) were tested for P. aeruginosa ATCC 10145-cidal activity in 10 mM Na-phosphate buffer pH 5.5, containing 0.25% glucose by counting the numbers of colonies of surviving bacteria at serial, twofold dilutions from 300 μg/ml down to 19 ng/ml of each peptide (CFU-assay; Steinberg and Lehrer, 1997, Methods Mol. Biol. 78, 169-186).
Staphylococcus aureus is a major skin pathogen, which causes skin infections, in particular in atopic dermatitis. The sensitivity of S. aureus ATCC 6538 towards several CIDAMPs was assessed using the CFU-assay as above (see Example 1). HR 1-18, which lacks S. aureus.-bactericidal activity, is converted in a S. aureus-cidal peptide, when all His are replaced by Arg (HR 1-18 4H-4R; see Table 13 and FIG. 9). […] HR 1-18 4H-4R is rich in Ser and Arg and contains a single Leu residue. When this single Leu was replaced by Gly in S. aureus-cidal HR 1-18 4H-4R (forming HR 1-18 4H-4R/L-G), S. aureus-cidal activity was abolished at both pH 7.0 and pH 5.5 (see Table 13 and FIG. 9).

[10] = system: Klebsiella pneumoniae ATCC 13883; test: CFU-assay, Klebsiella pneumoniae-cidal activity; assay type: cell-based
[11] = system: Burkholderia cepacia ATCC 25416; test: CFU-assay, Burkholderia cepacia-cidal activity; assay type: cell-based

Compound | MIC, S. aureus ATCC 43300 [1] | CC50 [2] | HC50 [3] | MIC, C. neoformans ATCC 208821 [4] | hemolytic activity (in words) [5] | also measured
CCCCCCCCCCCCCCCC(=O)NCC(=O)N[C@@H](CCCNC(=N)N)C(=O)N[C@@H](CCCNC(=N)N)C(=O)NCC(=O)NCC(=O)N[C@@H](CCCNC(=N)N)C(=O)O [Pal-GR6, Pal-GRRGGR] (HELM PEPTIDE1{[CCCCCCCCCCCCCCCC(=O)[*:2]].G.R.R.G.G.R}$$$$V2.0) | ≥16 µg/mL | > 32 µg/mL | > 300 µg/mL | ≥16 µg/mL |  | 
S-Pal-LCE3C55-75: palmitoylated peptide named among those with low hemolytic activity (SHHRHFRSHQCRRQRSNSCDR; also: S-palmitoylated, Cys not given here; UniProt Q5T5A8 55-75, looked up, fragment) |  |  |  |  | low hemolytic activity | 
CCCCCCCCCCCCCCCC(=O)NCC(=O)N[C@@H](CN)C(=O)NCC(=O)N[C@@H](CN)C(=O)O [Pal-GDap4, Pal-GDapGDap] (Palmitoyl-G[Dap]G[Dap]-OH) | ≥8 µg/mL | > 32 µg/mL | > 300 µg/mL | ≥1 µg/mL | low hemolytic activity | MIC, C. albicans ATCC 90028 [6]: ≥8 µg/mL; MIC [6]: 1 to 32 µg/mL
CCCCCCCCCCCCCCCC(=O)NCC(=O)N[C@@H](CCCNC(=N)N)C(=O)N[C@@H](Cc1c[nH]cn1)C(=O)NCC(=O)N[C@@H](CO)C(=O)NCC(=O)N[C@@H](CC(C)C)C(=O)NCC(=O)N[C@@H](Cc1c[nH]cn1)C(=O)N[C@@H](CO)C(=O)N[C@@H](CO)C(=O)N[C@@H](CO)C(=O)N[C@@H](Cc1c[nH]cn1)C(=O)NCC(=O)N[C@@H](CCC(N)=O)C(=O)N[C@@H](Cc1c[nH]cn1)C(=O)NCC(=O)N[C@@H](CO)C(=O)NCC(=O)N[C@@H](CO)C(=O)NCC(=O)N[C@@H](CCCNC(=N)N)C(=O)O [Pal-HR 1-18] (HELM PEPTIDE1{[CCCCCCCCCCCCCCCC(=O)[*:2]].G.R.H.G.S.G.L.G.H.S.S.S.H.G.Q.H.G.S.G.S.G.R}$$$$V2.0) |  | > 32 µg/mL and > 13.7 µM | > 300 µg/mL |  | low hemolytic activity | HC50 at 1 h ([3]; human, washed erythrocytes from EDTA-blood, pH 7.4): > 130 µM; MIC, A. baumannii ATCC 19606 [7]: ≥32 µg/mL
CCCCCCCCCCCCCCCC(=O)NCC(=O)N[C@@H](CCCCN)C(=O)N[C@@H](CCCCN)C(=O)NCC(=O)NCC(=O)N[C@@H](CCCCN)C(=O)NCC(=O)NCC(=O)N[C@@H](CCCCN)C(=O)NCC(=O)N[C@@H](CCCCN)C(=O)NCC(=O)N[C@@H](CCCCN)C(=O)O [Pal-K-GR13] (HELM PEPTIDE1{[CCCCCCCCCCCCCCCC(=O)[*:2]].G.K.K.G.G.K.G.G.K.G.K.G.K}$$$$V2.0) |  | > 32 µg/mL | > 300 µg/mL |  | low hemolytic activity | 
CCCCCCCCCCCCCCCC(=O)NCC(=O)N[C@@H](CCCN)C(=O)N[C@@H](CCCN)C(=O)NCC(=O)NCC(=O)N[C@@H](CCCN)C(=O)NCC(=O)NCC(=O)N[C@@H](CCCN)C(=O)NCC(=O)N[C@@H](CCCN)C(=O)NCC(=O)N[C@@H](CCCN)C(=O)O [Pal-Orn-GR13, Pal-GOOGGOGGOGOGO] (HELM PEPTIDE1{[CCCCCCCCCCCCCCCC(=O)[*:2]].G.[Orn].[Orn].G.G.[Orn].G.G.[Orn].G.[Orn].G.[Orn]}$$$$V2.0) |  | > 32 µg/mL | > 300 µg/mL |  | low hemolytic activity | 
CCCCCCCCCCCCCCCC(=O)NCC(=O)N[C@@H](CCN)C(=O)NCC(=O)N[C@@H](CCN)C(=O)O [Pal-GDab4, Pal-GDabGDab] (HELM PEPTIDE1{[CCCCCCCCCCCCCCCC(=O)[*:2]].G.[Dab].G.[Dab]}$$$$V2.0) | ≥32 µg/mL | 32 µg/mL (≈ 56.1 µM) |  | ≥16 µg/mL |  | MBC90 [8]: 2.35 µg/mL (≈ 4.12 µM); MBC100 [8]: 9.38 µg/mL (≈ 16.4 µM); MBC90 [9]: 4.7 µg/mL (≈ 8.23 µM); MBC100 [9]: 18.75 µg/mL (≈ 32.9 µM); CC50 [3]: > 100 µg/mL; MIC, A. baumannii ATCC 19606 [7]: ≥32 µg/mL
Pal-SHHRPRLFHRRRH (Palmitoyl-SHHRPRLFHRRRH) [Pal-LCE-3B] |  |  |  |  |  | MBC90 ([10]; pH 5.5, 0.25% glucose): 0.15 µg/mL; MBC100 ([10]; pH 5.5, 0.25% glucose): 9.38 µg/mL; MBC90 ([10]; pH 7.3, 0.25% glucose): 2.35 µg/mL; MBC100 ([10]; pH 7.3, 0.25% glucose): 4.7 µg/mL
CCCCCCCCCCCCCCCC(=O)N[C@@H](CO)C(=O)N[C@@H](Cc1c[nH]cn1)C(=O)N[C@@H](Cc1c[nH]cn1)C(=O)N[C@@H](CCCNC(=N)N)C(=O)N[C@@H](Cc1c[nH]cn1)C(=O)N[C@@H](Cc1ccccc1)C(=O)N[C@@H](CCCNC(=N)N)C(=O)N[C@@H](CO)C(=O)N[C@@H](Cc1c[nH]cn1)C(=O)N[C@@H](CCC(N)=O)C(=O)N[C@@H](CS)C(=O)N[C@@H](CCCNC(=N)N)C(=O)N[C@@H](CCCNC(=N)N)C(=O)O [Pal-LCE3C55-67] (HELM PEPTIDE1{[CCCCCCCCCCCCCCCC(=O)[*:2]].S.H.H.R.H.F.R.S.H.Q.C.R.R}$$$$V2.0) | ≥32 µg/mL | > 32 µg/mL | > 100 µg/mL | ≥1 µg/mL |  | MIC, C. albicans ATCC 90028 [6]: ≥16 µg/mL; MIC [6]: 1 to 32 µg/mL
CCCCCCCCCCCCCCCC(=O)NCC(=O)N[C@@H](CCCNC(=N)N)C(=O)NCC(=O)N[C@@H](CCCNC(=N)N)C(=O)O [Pal-GR4, Pal-GRGR] (HELM PEPTIDE1{[CCCCCCCCCCCCCCCC(=O)[*:2]].G.R.G.R}$$$$V2.0) | ≥8 µg/mL | > 32 µg/mL | 100 µg/mL | ≥8 µg/mL |  | MIC, C. albicans ATCC 90028 [6]: ≥8 µg/mL; MIC [6]: 1 to 32 µg/mL
CCCCCCCCCCCCCCCC(=O)NCC(=O)N[C@@H](CCCNC(=N)N)C(=O)N[C@@H](CCCNC(=N)N)C(=O)NCC(=O)N[C@@H](CO)C(=O)NCC(=O)N[C@@H](CC(C)C)C(=O)NCC(=O)N[C@@H](CCCNC(=N)N)C(=O)N[C@@H](CO)C(=O)N[C@@H](CO)C(=O)N[C@@H](CO)C(=O)N[C@@H](CCCNC(=N)N)C(=O)O [Pal-HR 1-18 3H3R-GR13] (HELM PEPTIDE1{[CCCCCCCCCCCCCCCC(=O)[*:2]].G.R.R.G.S.G.L.G.R.S.S.S.R}$$$$V2.0) | ≥16 µg/mL | > 32 µg/mL | > 300 µg/mL | ≥16 µg/mL | low hemolytic activity | MIC, A. baumannii ATCC 19606 [7]: ≥16 µg/mL
Pal-GRRGSGLGRSSSRGGRGSGSGR (Palmitoyl-GRRGSGLGRSSSRGGRGSGSGR) [Pal-HR 1-18 4H-4R] |  |  |  |  |  | MBC90 ([11]; pH 7.3, 0.25% glucose): 75 µg/mL; MBC100 ([11]; pH 7.3, 0.25% glucose): 300 µg/mL; MBC90 ([11]; pH 7.3, 1% TSB): 75 µg/mL; MBC100 ([11]; pH 7.3, 1% TSB): 150 µg/mL
